Where two headings read alike, the source gives them in different places.
What was measured:
[1] = system: M-HeLa clone 11 (epithelioid carcinoma of the cervix, subline HeLa, clone M-HeLa); assay: MTT cytotoxicity test, M-HeLa; type: cell-based; details: mean ± SD, triplicate
Protocol: (§1) Formazan crystals were added to 100 µL of DMSO. […] The experiments for all compounds were repeated three times.

[2] = system: MCF-7 (human mammary duct adenocarcinoma cell line); assay: MTT cytotoxicity test, MCF-7; type: cell-based; details: triplicate
Protocol: as §1

[3] = system: PC3 prostate adenocarcinoma cell line; assay: MTT cytotoxicity test, PC3; type: cell-based; details: mean ± SD, triplicate
Protocol: as §1

[4] = system: HuTu 80 human duodenal adenocarcinoma; assay: MTT cytotoxicity test, HuTu 80; type: cell-based; details: triplicate
Protocol: as §1

[5] = system: Chang liver (HeLa derivative) human liver cells; assay: MTT cytotoxicity test, normal Chang liver cells; details: 48 h, read-out: IC50 Chang Liver (HeLa), normal cell line
Excerpt: (§2) For the experiments, tumor cell cultures of M-HeLa clone 11 (epithelioid carcinoma of the cervix, subline HeLa., clone M-HeLa), HuTu 80, human duodenal adenocarcinoma, MCF7—human breast adenocarcinoma (pleural fluid) collected from Institute of Cytology, Russian Academy of Sciences (St. Petersburg, Russia); PC3—prostate adenocarcinoma cell line collected from ATCC (American Type Cell Collection, Manassas, VA, USA; CRL 1435; human liver cells (Chang liver) and the Research Institute of Virology of the Russian Academy of Medical Sciences (Moscow, Russia) were used for cytotoxicity analysis.
(§3) The cytotoxic effect on cells was determined using the colorimetric method of cell proliferation—the MTT test. NADP-H-dependent cellular oxidoreductase enzymes can, under certain conditions, reflect the number of viable cells. These enzymes are able to reduce the tetrazolium dye (MTT)—3-(4,5-dimethylthiazol-2-yl)-2,5-diphenyl-tetrazolium bromide to insoluble blue-violet formazan, which crystallizes inside the cell. The amount of formazan formed is proportional to the number of cells with active metabolism. Cells were seeded on a 96-well Nunc plate at a concentration of 5 × 10^3 cells per well in a volume of 100 μL of medium and cultured in a CO2 incubator at 37 °C until a monolayer was formed. […] After 48 h of incubation of the cells with the tested compounds, the nutrient medium was removed from the plates and 100 µL of the nutrient medium without serum with MTT at a concentration of 0.5 mg/mL was added and incubated for 4 h at 37 °C. Formazan crystals were added to 100 µL of DMSO. Optical density was recorded at 540 nm on an Invitrologic microplate reader (Novosibirsk, Russia). The experiments for all compounds were repeated three times.
(§4) Statistical analysis was performed using the Mann–Whitney test (p < 0.05). Tabular and graphical data contain the averages and standard error.

[6] = system: MCF-7 breast cancer cell line; parameters: method as in PMID 25096298; details: cited from earlier work
[7] = parameters: method as in doi:10.5935/0103-5053.20160038; details: due to optimal hydrophilicity/lipophilicity; cited from earlier work
[8] = MTT cytotoxicity test, normal Chang liver cells; details: human
Excerpt: as §2, §3, §4

[9] = system: Chk1, Chk2, H2AX, MDM2, p53, p21, ATR in M-HeLa cells; assay: Multiplex analysis of DNA damage/genotoxicity markers (MILLIPLEX MAP 7-plex, Luminex); type: cell-based; details: IC50/2 and IC50, 24 h
Excerpt: Classical methods of assessing genotoxicity reveal mutations associated with increased or loss of function, but are not informative enough in studying the molecular mechanisms of DNA damage. The MILLIPLEX® MAP 7-plex DNA Damage/Genotoxicity Magnetic Bead kit allows to detect the expression and phosphorylation of a number of proteins involved in DNA damage, providing a faster and more accurate assessment of the state of the cell after exposure to genotoxic compounds. The 7-plex DNA Damage/Genotoxicity Magnetic Bead Kit is used to detect changes in phosphorylated Chk1 (Ser345), Chk2 (Thr68), H2AX (Ser139) and p53 (Ser15), as well as total protein levels of ATR, MDM2, and p21 in cellular lysates using the Luminex® system. […] The obtained results characterize the effect of the leading compound 7 on the DNA of M-HeLa cells at concentrations of IC50/2 and IC50. […] The fluorescence intensity of OTR markers also increases relative to the reference sample. […]
The studies were carried out according to the standard protocol. […] A total of 20 μg of total protein of each lysate diluted in MILLIPLEX® MAP Assay Buffer 2 was analyzed according to the analysis protocol (the lysate was incubated at 4 °C overnight). The mean fluorescence intensity (MFI) was detected using Luminex® system, MERCK, Kenilworth, NJ, USA.

[10] = system: anti-apoptotic Bcl protein; parameters: method as in PMID 20405848; details: cited from earlier work
[11] = Homo sapiens, M-HeLa, 48 h, read-out: IC50 M-HeLa
[12] = Homo sapiens, MCF7, 48 h, mean ± SD, read-out: IC50 MCF-7
[13] = Homo sapiens, HuTu80, 48 h, mean ± SD, read-out: IC50 HuTu 80
[14] = Homo sapiens, M-HeLa, lead compounds, read-out: IC50 M-HeLa (Table 2)
[15] = Homo sapiens, MCF7, mean ± SD, lead compounds, read-out: IC50 MCF-7 (Table 2)
[16] = lead compounds, read-out: IC50 PC3 (Table 2)
[17] = Homo sapiens, HuTu80, mean ± SD, lead compounds, read-out: IC50 HuTu 80 (Table 2)

CCOC(=O)C1=C(C)N=c2s/c(=C\c3ccc(O)cc3)c(=O)n2C1c1cccc([N+](=O)[O-])c1 (stereo not drawn) [Compound 15, Ethyl (Z)-2-(4-hydroxybenzylidene)-7-methyl-5-(3-nitrophenyl)-3-oxo-2,3-dihydro-5H-thiazolo[3,2-a]pyrimidine-6-carboxylate]
IC50 [1, 11]: > 100 µM | IC50 [2, 12]: > 100 µM | IC50 ([3]; 48 h, read-out: IC50 PC3): 70 ± 5.5 µM | IC50 [4, 13]: 74.5 ± 5.7 µM | melting point: 190 to 192 °C | IC50 ([5]; Homo sapiens, HeLa): 91.4 ± 7.2 µM

COc1ccc2c(c1)CCC1=C2N=c2s/c(=C\c3c[nH]c4ccc(Br)cc34)c(=O)n2C1c1ccc(Cl)cc1 (stereo not drawn) [Compound 1]
cytotoxicity efficiency relative to doxorubicin [6]: 1.15 times | absorption ability in the gastrointestinal tract [7]: high absorption ability

CCOC(=O)C1=C(C)N=c2s/c(=C\c3ccc(O)cc3)c(=O)n2C1c1ccc(Br)cc1 (stereo not drawn) [Compound 14, Ethyl (Z)-5-(4-bromophenyl)-2-(4-hydroxybenzylidene)-7-methyl-3-oxo-2,3-dihydro-5H-thiazolo[3,2-a]pyrimidine-6-carboxylate]
IC50 [1, 11]: 31 ± 2.4 µM | IC50 [2, 12]: 53.3 ± 4.2 µM | IC50 ([3]; 48 h, read-out: IC50 PC3): 49.3 ± 3.9 µM | IC50 [4, 13]: 32.1 ± 2.5 µM | melting point: 207 to 209 °C | IC50 ([5]; Homo sapiens, HeLa): 53.2 ± 4.2 µM

CCOC(=O)C1=C(C)N=c2s/c(=C\c3ccccc3O)c(=O)n2C1c1ccc(Br)cc1 (stereo not drawn) [Compound 12, Ethyl (Z)-5-(4-bromophenyl)-2-(2-hydroxybenzylidene)-7-methyl-3-oxo-2,3-dihydro-5H-thiazolo[3,2-a]pyrimidine-6-carboxylate]
IC50 [1, 11]: 18.8 ± 1.5 µM | IC50 [1, 14]: 18.8 ± 1.5 µM | IC50 [2, 12]: 22.3 ± 1.4 µM | IC50 [2, 15]: 52.7 ± 4.2 µM | IC50 ([3]; 48 h, read-out: IC50 PC3): 28.1 ± 2.2 µM | IC50 [3, 16]: 28.1 ± 2.2 µM | IC50 [4, 13]: 23.7 ± 1.8 µM | IC50 [4, 17]: 23.7 ± 1.8 µM | melting point: 201 to 203 °C | IC50 at 48 h [8]: 78.2 ± 6.2 µM | IC50 ([5]; Homo sapiens, HeLa): 78.2 ± 6.2 µM

ethyl (Z)-2-(2-hydroxybenzylidene)-5-(4-methoxyphenyl)-7-methyl-3-oxo-2,3-dihydro-5H-thiazolo[3,2-a]pyrimidine-6-carboxylate [Compound 8]
IC50 ([1]; 48 h, read-out: IC50 M-HeLa): 90 ± 8.3 µM | IC50 ([2]; 48 h, mean ± SD, read-out: IC50 MCF-7): 93.3 ± 8.2 µM | IC50 ([3]; 48 h, read-out: IC50 PC3): 93.7 ± 8.5 µM | IC50 ([4]; 48 h, mean ± SD, read-out: IC50 HuTu 80): 85.9 ± 8 µM | IC50 ([5]; MTT, mean ± SD, triplicate): 56.4 ± 4.5 µM

CNC(=O)c1cc(Oc2ccc(NC(=O)Nc3ccc(Cl)c(C(F)(F)F)c3)cc2)ccn1 [Sorafenib, reference compound]
IC50 [1, 11]: 25 ± 1.8 µM | IC50 [1, 14]: 25 ± 1.8 µM | IC50 [2, 12]: 27.5 ± 2.2 µM | IC50 [2, 15]: 27.5 ± 2.2 µM | IC50 ([3]; 48 h, read-out: IC50 PC3): 12.7 ± 1.1 µM | IC50 [3, 16]: 27.5 ± 2.2 µM | IC50 [4, 13]: 13 ± 1.2 µM | IC50 [4, 17]: 13 ± 1.2 µM | IC50 at 48 h [8]: 21.7 ± 1.7 µM | IC50 ([5]; Homo sapiens, HeLa): 21.7 ± 1.7 µM

COc1ccccc1C1C(C(=O)c2ccccc2)=C(C)N=c2s/c(=C\c3ccccc3O)c(=O)n21 (stereo not drawn) [Compound 11, (Z)-6-benzoyl-2-(2-hydroxybenzylidene)-5-(2-methoxyphenyl)-7-methyl-5H-thiazolo[3,2-a]pyrimidin-3(2H)-one]
IC50 [1, 11]: 56.4 ± 4.5 µM | IC50 [2, 12]: 81 ± 7.4 µM | IC50 ([3]; 48 h, read-out: IC50 PC3): 54 ± 4.3 µM | IC50 [4, 13]: 39 ± 3.1 µM | melting point: 167 to 169 °C | IC50 ([5]; Homo sapiens, HeLa): 64 ± 5.1 µM

CCOC(=O)C1=C(C)N=c2s/c(=C\c3ccc(O)cc3)c(=O)n2C1c1ccccc1 (stereo not drawn) [Compound 13, ethyl (Z)-2-(4-hydroxybenzylidene)-7-methyl-3-oxo-5-phenyl-2,3-dihydro-5H-thiazolo[3,2-a]pyrimidine-6-carboxylate]
IC50 [1, 11]: 70 ± 5.5 µM | IC50 [2, 12]: > 100 µM | IC50 ([3]; 48 h, read-out: IC50 PC3): 54 ± 4.3 µM | IC50 [4, 13]: 43.3 ± 3.5 µM | IC50 ([5]; Homo sapiens, HeLa): 86.1 ± 6.8 µM

CCOC(=O)C1=C(C)N=c2s/c(=C\c3ccccc3O)c(=O)n2C1c1ccccc1 (stereo not drawn) [Compound 7, ethyl (Z)-2-(2-hydroxybenzylidene)-7-methyl-3-oxo-5-phenyl-2,3-dihydro-5H-thiazolo[3,2-a]pyrimidine-6-carboxylate]
IC50 [1, 11]: 11.9 ± 0.9 µM | IC50 [1, 14]: 11.9 ± 0.9 µM | IC50 [2, 12]: 43.7 ± 3.5 µM | IC50 [2, 15]: 43.7 ± 3.5 µM | IC50 ([3]; 48 h, read-out: IC50 PC3): 77.6 ± 6.7 µM | IC50 [3, 16]: 77.6 ± 6.7 µM | IC50 [4, 13]: 10.2 ± 0.8 µM | IC50 [4, 17]: 10 ± 0.8 µM | average fluorescence intensity of the markers Chk1, Chk2, H2AX, MDM2, p53, and p21 ([9]; compared to untreated control): significantly increase | fluorescence intensity of OTR markers ([9]; relative to the reference sample): increases | IC50 at 48 h [8]: 75 ± 5.7 µM | IC50 ([5]; Homo sapiens, HeLa): 75 ± 5.7 µM

CCOC(=O)C1=C(C)N=c2s/c(=C\c3ccccc3O)c(=O)n2C1c1cccc([N+](=O)[O-])c1 (stereo not drawn) [Compound 10, Ethyl (Z)-2-(2-hydroxybenzylidene)-7-methyl-5-(3-nitrophenyl)-3-oxo-2,3-dihydro-5H-thiazolo[3,2-a]pyrimidine-6-carboxylate]
IC50 [1, 11]: 55 ± 4.4 µM | IC50 [1, 14]: 55 ± 4.4 µM | IC50 [2, 12]: 56 ± 4.5 µM | IC50 [2, 15]: 56 ± 4.5 µM | IC50 ([3]; 48 h, read-out: IC50 PC3): 56 ± 4.4 µM | IC50 [3, 16]: 56 ± 4.4 µM | IC50 [4, 13]: 60 ± 4.7 µM | IC50 [4, 17]: 14.6 ± 0.3 µM | melting point: 187 to 189 °C | IC50 at 48 h [8]: 88 ± 7 µM | IC50 ([5]; Homo sapiens, HeLa): 88 ± 7 µM

COc1ccc(C2C3=C(N=c4s/c(=C\c5c[nH]c6ccc(Br)cc56)c(=O)n42)c2ccc(OC)cc2CC3)cc1 (stereo not drawn) [Compound 3]
IC50 [10]: 3.4 µM
